In patent publication US8907131B2, “Compounds for treating proliferative disorders” (Synta Pharmaceuticals Corp., priority 2007, dated 2014):

system: Hsp70; test: Hsp70 ELISA assay: Hsp70 induction in Ramos B lymphoma cells; type: cell-based; conditions: Homo sapiens; Ramos B lymphoma cells treated at 10, 50, 250 and 1250 nM for 5 h; whole culture lysate, Hsp70 ELISA; read-out: ED50 (Hsp70 induction)
Method: Hsp70 induction was measured in Ramos B lymphoma cells. Cells were seeded at 80 μl/well in 96-plate and treated with compounds at 10, 50, 250 and 1250 nM for 5 h. […] Cells were lysed in culture medium with ¼-vol of alkaline-detergent buffer composed of 200 mM bicarbonate, pH 9.4, and 20% Triton X100 to include Hsp70 that would be released into culture supernatant. […] Fifty microliter of the whole culture lysate was transferred to Hsp70 ELISA assay well (Assay Design) including 150 μl of immunoenhancer solution (Toyobo, Japan). Then the assay steps were carried out according to the protocol of the manufacturer. Compound A was included in each cell culture plate as a reference to normalize the interexperimental variance.

**Q.** With CN(NC(=O)CC(=O)NN(C)C(=[Se])c1ccccc1)C(=[Se])c1ccccc1 [Compound 1, N′1,N′3-dimethyl-N′1,N′3-di(phenylcarbonoselenoyl)malonohydrazide] as the compound, how does the EC50 read?
**A.** 70 nM

**Q.** How did the EC50 turn out when CO/N=C(\c1ccccc1)N(C)NC(=O)CC(=O)NN(C)/C(=N/OC)c1ccccc1 [Compound 10, N′1,N′3-bis((E)-(methoxyimino)(phenyl)methyl)-N′1,N′3-dimethylmalonohydrazide] was run?
**A.** > 1250 nM

**Q.** With CN(NC(=O)CC(=O)NN(C)/C(=N/O)c1ccccc1)/C(=N/O)c1ccccc1 [Compound 11, N′1,N′3-bis((E)-(hydroxyimino)(phenyl)methyl)-N′1,N′3-dimethylmalonohydrazide] as the compound, how does the EC50 read?
**A.** > 1250 nM

**Q.** Which EC50 does the source give for COc1ccc(OC)c(C(=[Se])N(C)NC(=O)CC(=O)NN(C)C(=[Se])c2cc(OC)ccc2OC)c1 [Compound 12, N′^1,N′3-bis(2,5-dimethoxyphenylcarbonoselenoyl)-N′^1,N′^3-dimethylmalonohydrazide] here?
**A.** > 1250 nM

**Q.** With CNN=C(C(=O)NN(C)C(=[Se])c1ccccc1)C(=O)NN(C)C(=[Se])c1ccccc1 [Compound 13, N′1,N′3-dimethyl-2-(2-methylhydrazono)-N′1,N′3-di(phenylcarbonoselenoyl)malonohydrazide] as the compound, how does the EC50 read?
**A.** > 1250 nM

**Q.** How did the EC50 turn out when CN(NC(=O)CS(=O)(=O)NN(C)C(=[Se])c1ccccc1)C(=[Se])c1ccccc1 [Compound 14, N′-methyl-2-(2-methyl-2-(phenylcarbonoselenoyl)hydrazinyl)-2-oxo-N′-(phenylcarbonoselenoyl)ethanesulfonohydrazide] was run?
**A.** > 1250 nM

same assay, conditions: Ramos B lymphoma cells; titration used to set cell density

**Q.** CN(NC(=O)CC(=O)NN(C)C(=S)c1ccccc1)C(=S)c1ccccc1 [Compound A, reference compound] was tested. Which Hsp70 induction did it give?
**A.** Hsp70 induction in linear manner with concentration
